Assay results reported in paper PMC11653243, “Enhancing Phototoxicity in BODIPY‐Perylene Charge Transfer Dyads by Combined Iodination and Mesylation” (Chemistry (Weinheim an Der Bergstrasse, Germany), 2024).

Key:
MCF‐7 cells = experiment: Phototoxicity, 470 nm LED, alamar blue assay; type: cell-based; settings: for Photo Index (PI), ratio of dark IC50 to light IC50: 17 J/cm^2, 470 nm LED; for IC50: Homo sapiens, MCF7, light or radiation study, 17 h incubation, 470 nm LED, 17±1.64 J/cm^2 (2.5 mW/cm^2 for 2 h)
Description: The phototoxicity of the BODIPY's were assessed to compare the light induced toxicity of the iodinated compounds with their non‐iodinated counterparts. CHO and MCF‐7 cells were treated with B2P, B2PI, MB2P, and MB2PI in a concentration range from 0.10–1 μM for 17 h, the wells were decanted and filled with 100 μL phenol red free media prior to irradiation with a 470 nm LED (17 J/cm^2). Cell viability was determined using the alamar blue cell viability assay and % viability was calculated relative to untreated control wells.
(§1) Dark‐ and photo‐toxicity studies were performed by seeding CHO and MCF‐7 cells in clear 96‐well plates (Nunc) and treating with varying concentrations of B2P, MB2P, B2PI and MB2PI. Phototoxicity experiments were carried out using a 470 nm LED. For hypoxic phototoxicity studies, hypoxia was mimicked by adding CoCl2 to the cells prior to irradiation. Cell viability was determined using the alamar blue assay and absorbance measured with a BMG LABTECH CLARIOstar plate reader. […]
(§2) For 24 h dark toxicity studies, 50, 10, 5 and 1 µM stock concentrations of B2P, B2PI, MB2P and MB2PI were prepared in media to a final DMSO concentration of ≤1%. 100 µL of each concentration was added to the wells in triplicate and the plates incubated for 24 h in the dark at 37°C. Cell viability of all plate-based studies was assessed using the alamar blue assay. A 10% Resazurin-media solution (alamarBlue, Invitrogen) was added to the wells and incubated for 5 h in the absence of light. Absorbance was measured using a BMG LABTECH CLARIOstar plate reader at 570 nm and 600 nm (corrected for background subtraction). Cell viability is presented as a percentage (%) compared to untreated control wells. Plates were performed in triplicate.
Phototoxicity and dark control plates were performed by incubating CHO or MCF-7 cells with B2P, B2PI, MB2P and MB2PI for 17 h to allow uptake, emptying the wells, replacing with phenol red free media, and irradiating at a total dose of 17 ± 1.64 J/cm2 (2 h at 2.37 ± 0.23 mW/cm2) using a 470 nm LED (TeleOpto LEDA-X LED driver and array). Control plates were incubated in the dark during the irradiation period (2 h). After irradiation, the cells were incubated in the dark overnight to allow for cell recovery. Irradiation conditions were tested on untreated cells to confirm cells remained viable at this dose before any experiments were performed and each phototoxicity plate included untreated test wells for cell viability comparison. Viability was determined using the alamar blue assay as per the cytotoxicity

CHO cells = experiment: Dark toxicity, 24 h, alamar blue assay; type: cell-based, Chinese Hamster; settings: Cricetulus griseus, light or radiation study, without irradiation, 24 h in the dark at 37 °C
Description: Typical of many BODIPY derivatives, the BODIPY's presented in this work are insoluble in aqueous media, including PBS, and thus the main stock solutions (2–3 mM) were prepared in 100 % DMSO and diluted in media immediately before treating the cells. The maximum concentration for dark toxicity was set at 50 μM to keep the concentration of DMSO ≤1 % (v/v) to maintain cell health. As a result, it was not possible to determine an exact dark IC50 value as concentrations above 50 μM demanded DMSO concentrations that would affect the viability of the cells. Dietzek‐Ivanšić et al previously reported on the effect of DMSO on MCF‐7 cell viability, where cell viability remained high (95 %) in cells treated with 1 % DMSO in cell culture media for 24 h, whereas only 40 % of cells remained viable after treatment with 3.8 % DMSO. Working stocks in cell culture media remained stable within the incubation times used for cellular studies i. e. up to 24 h.[25]
as §1
as §2, with “triplicate. […]” for “triplicate.”

## CC1=C(I)C(C)=[N+]2C1=C(c1ccccc1)c1c(C)c(-c3ccc4c5cccc6cccc(c7cccc3c74)c65)c(C)n1[B-]2(F)F [B2PI]
MCF‐7 cells
  Photo Index (PI), ratio of dark IC50 to light IC50: > 213
CHO cells
  IC50: > 50000 nM

## CC1=CC(C)=[N+]2C1=C(c1ccccc1)c1c(C)c(-c3ccc4c5cccc6cccc(c7cccc3c74)c65)c(C)n1[B-]2(F)F [B2P]
MCF‐7 cells
  Photo Index (PI), ratio of dark IC50 to light IC50: > 182
  IC50: 274 nM
CHO cells
  IC50: > 50000 nM

## CC1=C(c2ccc3c4cccc5cccc(c6cccc2c63)c54)C(C)=[N+]2C1=C(c1c(C)cc(C)cc1C)c1c(C)c(I)c(C)n1[B-]2(F)F [MB2PI]
MCF‐7 cells
  Photo Index (PI), ratio of dark IC50 to light IC50: > 218
  IC50: 229 nM
CHO cells
  IC50: > 50000 nM

## CC1=C(c2ccc3c4cccc5cccc(c6cccc2c63)c54)C(C)=[N+]2C1=C(c1c(C)cc(C)cc1C)c1c(C)cc(C)n1[B-]2(F)F [MB2P]
MCF‐7 cells
  Photo Index (PI), ratio of dark IC50 to light IC50: > 109
  IC50: 457 nM
CHO cells
  IC50: > 50000 nM
